Experimental data published in the supplement of paper PMC10307832.

Experiments:
Test in all cases: relative viability (nuclei count vs DMSO), 5 days (fraction); higher = more cells survive
VX-702 + Luminespib = compound: NC(=O)c1ccc(N(C(N)=O)c2c(F)cccc2F)nc1-c1ccc(F)cc1F [VX-702] + CCNC(=O)c1noc(-c2cc(C(C)C)c(O)cc2O)c1-c1ccc(CN2CCOCC2)cc1 [Luminespib] (partner 0.01 µM)
Summary of the method: (§1)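 Dosing by pin tool came one day after lung cancer cell lines were seeded in 1536-well plates, using either one drug or a fixed anchor-drug dose plus five library-drug doses (not always all listed) in √10 steps. After 5 days, nuclei were counted on 4× images. Relative viability is treated-well nuclei count divided by vehicle-well nuclei count, and values are medians of duplicate plates.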

VX-702 + Palbociclib = compound: NC(=O)c1ccc(N(C(N)=O)c2c(F)cccc2F)nc1-c1ccc(F)cc1F [VX-702] + CC(=O)c1c(C)c2cnc(Nc3ccc(N4CCNCC4)cn3)nc2n(C2CCCC2)c1=O [Palbociclib] (partner 0.5 µM)
Summary of the method: as §1

VX-702 + Phenformin = compound: NC(=O)c1ccc(N(C(N)=O)c2c(F)cccc2F)nc1-c1ccc(F)cc1F [VX-702] + N=C(N)NC(=N)NCCc1ccccc1 [Phenformin] (partner 250 µM)
Summary of the method: as §1

Dabrafenib + Lapatinib = compound: CC(C)(C)c1nc(-c2cccc(NS(=O)(=O)c3c(F)cccc3F)c2F)c(-c2ccnc(N)n2)s1 [Dabrafenib] + CS(=O)(=O)CCNCc1ccc(-c2ccc3ncnc(Nc4ccc(OCc5cccc(F)c5)c(Cl)c4)c3c2)o1 [Lapatinib] (partner 2 µM)
Summary of the method: as §1

Row | Cell Line | relative viability (VX-702 + Luminespib; first compound 0.02 µM) | relative viability (VX-702 + Luminespib; first compound 0.2 µM) | relative viability (VX-702 + Luminespib; first compound 0.6325 µM) | relative viability (VX-702 + Luminespib; first compound 2 µM) | relative viability (VX-702 + Palbociclib; first compound 0.02 µM) | relative viability (VX-702 + Palbociclib; first compound 0.2 µM) | relative viability (VX-702 + Palbociclib; first compound 0.6325 µM) | relative viability (VX-702 + Palbociclib; first compound 2 µM) | relative viability (VX-702 + Phenformin; first compound 0.02 µM) | relative viability (VX-702 + Phenformin; first compound 0.2 µM) | relative viability (VX-702 + Phenformin; first compound 0.6325 µM) | relative viability (VX-702 + Phenformin; first compound 2 µM) | relative viability (Dabrafenib + Lapatinib; first compound 0.003 µM) | relative viability (Dabrafenib + Lapatinib; first compound 0.009487 µM) | relative viability (Dabrafenib + Lapatinib; first compound 0.03 µM) | relative viability (Dabrafenib + Lapatinib; first compound 0.09487 µM) | relative viability (Dabrafenib + Lapatinib; first compound 0.3 µM)
1 | NCI-H2023 | 0.692 | 0.829 | 0.826 | 0.974 | 0.381 | 0.347 | 0.404 | 0.436 | 0.407 | 0.469 | 0.413 | 0.559 | 0.617 | 1.09 | 0.979 | 0.79 | 0.961
2 | NCI-H2085 | 0.479 | 0.462 | 0.477 | 0.41 | 0.507 | 0.46 | 0.506 | 0.516 | 0.718 | 0.728 | 0.704 | 0.702 | 0.694 | 0.821 | 0.58 | 0.74 | 0.784
3 | NCI-H2087 | 0.162 | 0.141 | 0.169 | 0.138 | 0.203 | 0.228 | 0.214 | 0.225 | 0.481 | 0.445 | 0.422 | 0.528 | 0.689 | 1.08 | 0.769 | 0.77 | 0.785
4 | NCI-H2126 | 0.879 | 0.918 | 0.834 | 0.918 | 0.365 | 0.323 | 0.341 | 0.35 | 0.545 | 0.521 | 0.51 | 0.507 | 0.735 | 0.783 | 0.75 | 0.842 | 0.89
5 | NCI-H2170 | 0.413 | 0.638 | 0.52 | 0.804 | 0.355 | 0.374 | 0.42 | 0.369 | 0.475 | 0.442 | 0.429 | 0.451 | 0.263 | 0.265 | 0.268 | 0.291 | 0.311
6 | NCI-H2228 | 0.101 | 0.144 | 0.145 | 0.124 | 0.604 | 0.763 | 0.676 | 1.07 | 0.48 | 0.354 | 0.324 | 0.34 | 0.856 | 1.2 | 1.01 | 1.01 | 1.14
7 | NCI-H2347 | 0.446 | – | 0.909 | 0.552 | 0.455 | 0.473 | 0.466 | 0.476 | 0.574 | – | 0.395 | 0.425 | 0.631 | 1.02 | 0.918 | 0.897 | 0.89
8 | NCI-H2405 | 0.659 | 0.641 | 0.799 | 0.73 | 0.536 | 0.515 | 0.457 | 0.493 | 0.457 | 0.437 | 0.385 | 0.401 | – | 0.804 | – | 0.853 | 0.937
9 | NCI-H3122 | 0.0998 | 0.0746 | 0.0992 | 0.0951 | 0.243 | 0.19 | 0.184 | 0.215 | 0.409 | 0.388 | 0.44 | 0.424 | 1.05 | 1.08 | 1.04 | 0.959 | 1.08
10 | PC-3 [JPC-3] | 0.636 | 0.695 | 0.686 | 0.668 | 0.568 | 0.517 | 0.566 | 0.553 | 0.484 | 0.491 | 0.457 | 0.464 | 0.448 | 0.509 | 0.416 | 0.434 | 0.429
11 | PC-14 | 0.138 | 0.171 | 0.158 | 0.175 | 0.519 | 0.595 | 0.561 | 0.732 | 0.618 | 0.547 | 0.689 | 0.483 | 0.282 | 0.418 | 0.363 | 0.317 | 0.364
12 | RERF-LC-KJ | 1.19 | 1.2 | 1.12 | 1.67 | 1 | 1.57 | 1.14 | 1.19 | 0.401 | 0.449 | 0.369 | 0.517 | 0.851 | 0.9 | 0.893 | 0.907 | 1.04
13 | SK-LU-1 | 0.211 | 0.177 | 0.2 | 0.207 | 0.38 | 0.355 | 0.382 | 0.395 | 0.636 | 0.508 | 0.524 | 0.531 | – | 0.804 | 0.653 | 0.664 | 0.719
14 | SK-MES-1 | 0.839 | 0.711 | 0.673 | 0.822 | 0.334 | 0.312 | 0.293 | 0.314 | 0.678 | 0.663 | 0.725 | 0.73 | 0.418 | 0.546 | 0.525 | 0.506 | 0.598
15 | SW 1573 | 0.215 | 0.138 | 0.261 | 0.232 | 0.422 | 0.395 | 0.32 | 0.318 | 0.364 | 0.261 | 0.282 | 0.327 | 0.883 | 0.864 | 1.17 | 1.1 | 1.11
16 | UMC-11 | 0.993 | 0.865 | 0.805 | 1.11 | 0.319 | 0.327 | 0.336 | 0.309 | 0.34 | 0.346 | 0.301 | 0.363 | 1.01 | 1.08 | 0.812 | 1.08 | 0.959
